Measured values as given in patent publication US11667606B2, “Thyromimetics” (Autobahn Therapeutics, Inc., priority 2019, dated 2023).

Columns and labels:
TRβ = molecular target: T1, TRβ (Homo sapiens, UniProt P10828); experiment: Thyroid-hormone reporter-gene assay, TRβ (Gal4 DBD hybrid, luciferase, HEK293); assay type: cell-based; settings: for T3-SI, selectivity index (SI) calculated as EC50 (TRα)/EC50 (TRβ): TRβ over TRα selectivity from reporter-gene EC50 values; for EC50: reporter cells derived from HEK293, 24 hr incubation, luciferase readout
T1 construct: expressed in transfected cells; host or cells: HEK293
T1 sequence (P10828 217-461 limits assumed): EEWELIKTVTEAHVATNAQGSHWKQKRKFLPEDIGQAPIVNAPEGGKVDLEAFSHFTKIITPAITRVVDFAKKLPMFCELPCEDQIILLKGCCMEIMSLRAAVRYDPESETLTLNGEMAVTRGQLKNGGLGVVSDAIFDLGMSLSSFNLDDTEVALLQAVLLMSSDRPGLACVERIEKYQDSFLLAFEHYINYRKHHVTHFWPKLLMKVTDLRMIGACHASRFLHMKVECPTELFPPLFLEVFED
Method: (§1) Compounds were tested for thyroid-hormone receptor activity using TR reporter-gene assays. Reporter cells used in the assays express a TR-receptor hybrid (either TRα or TRβ) in which the native N-terminal DNA binding domain (DBD) has been replaced with that of the yeast Gal4 DBD. The reporter gene, firefly luciferase, is functionally linked to the Gal4 upstream activation sequence (UAS). Both cell lines were derived from human embryonic kidney (HEK293).
(§2) A suspension of reporter cells was prepared in cell recovery medium containing 10% charcoal-stripped FBS, and dispensed into assay plates. The plates were pre-incubated for 6 hours in a cell culture incubator (37° C./5% CO2/85% humidity).
(§3) These intermediate stocks were subsequently diluted directly into compound screening medium containing 10% charcoal-stripped FBS to generate “2×-concentration” treatment media (containing 0.2, 0.4 or 0.8% DMSO).
(§4) At the end of the pre-incubation period, culture media were discarded from the assay plates, and all wells received 100 μl of compound screening medium. 100 μl of each of the previously prepared “2×-concentration” treatment media were dispensed into duplicate assay wells, thereby achieving the desired final treatment concentrations. The final concentration of DMSO in all assay wells was 0.1, 0.2 or 0.4%. Assay plates were incubated for 24 hr in a cell culture incubator (37° C./5% CO2/85% humidity).
(§5) At the 24 h assay endpoint, treatment media were discarded and […] of luciferase detection reagent was added. Relative luminometer units (RLUs) were quantified from each assay well.

TRα = molecular target: T2, TRα (Homo sapiens, UniProt P10827); experiment: Thyroid-hormone reporter-gene assay, TRα (Gal4 DBD hybrid, luciferase, HEK293); assay type: cell-based; settings: reporter cells derived from HEK293, 24 hr incubation, luciferase readout
T2 construct: expressed in transfected cells; host or cells: HEK293
T2 sequence (P10827 128-410 isoform P10827-2 limits assumed): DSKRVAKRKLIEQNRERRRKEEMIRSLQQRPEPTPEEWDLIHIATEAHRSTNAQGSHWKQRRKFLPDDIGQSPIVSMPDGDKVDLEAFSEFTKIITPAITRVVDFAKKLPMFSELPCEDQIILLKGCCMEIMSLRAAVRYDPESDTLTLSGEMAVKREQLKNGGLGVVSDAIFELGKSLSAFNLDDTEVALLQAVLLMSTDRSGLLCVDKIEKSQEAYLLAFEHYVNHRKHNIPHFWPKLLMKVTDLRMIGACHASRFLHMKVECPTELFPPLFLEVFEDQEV
Method: as §1, §2, §3, §4, §5

| Structure (SMILES) | T3-SI, selectivity index (SI) calculated as EC50 (TRα)/EC50 (TRβ) (TRβ) | EC50 (TRβ) [nM] | EC50 (TRα) [nM] |
| --- | --- | --- | --- |
| O=C(O)COc1cc(Cl)c(Cc2ccc(O)c(-c3cccc(C(F)(F)F)c3F)c2)c(Cl)c1 [Compound 49, 2-(3,5-dichloro-4-((2′-fluoro-6-hydroxy-3′-(trifluoromethyl)-[1,1′-biphenyl]-3-yl)methyl)phenoxy)acetic Acid] | ++ (3X < T3-SI ≤ 30X) | 100 to 1000 | > 1000 |
| C[C@@H](c1ccc(F)cc1)c1cc(Cc2c(Cl)cc(OCC(=O)O)cc2Cl)ccc1O (single isomer, unassigned) [Compound 74] | ++ (3X < T3-SI ≤ 30X) | 100 to 1000 | > 1000 |
| O=C(O)COc1cc(Cl)c(Cc2ccc(O)c(-c3cccc(Cl)c3)c2)c(Cl)c1 [Compound 29, 2-(3,5-dichloro-4-((3′-chloro-6-hydroxy-[1,1′-biphenyl]-3-yl)methyl)phenoxy)acetic Acid] | ++ (3X < T3-SI ≤ 30X) | 10 to 100 | 100 to 1000 |
| CC(C)(c1ccc(F)cc1)c1cc(Cc2c(Cl)cc(OCC(=O)O)cc2Cl)ccc1O [Compound 105, 2-(3,5-dichloro-4-(3-(2-(4-fluorophenyl)propan-2-yl)-4-hydroxybenzyl)phenoxy)acetic Acid] | ++ (3X < T3-SI ≤ 30X) | 10 to 100 | 100 to 1000 |
| O=C(O)COc1cc(Cl)c(Cc2ccc(O)c(Cc3ccc(F)cc3)c2)c(Cl)c1 [Compound 70, 2-(3,5-dichloro-4-(3-(4-fluorobenzyl)-4-hydroxybenzyl)phenoxy)acetic Acid] | +++ (T3-SI > 30X) | 100 to 1000 | > 1000 |
| CC(c1ccc(F)cc1)c1cc(Cc2c(Cl)cc(OCC(=O)O)cc2Cl)ccc1O (stereo not drawn) [Compound 73, 2-(3,5-dichloro-4-(3-(1-(4-fluorophenyl)ethyl)-4-hydroxybenzyl)phenoxy) acetic Acid] | ++ (3X < T3-SI ≤ 30X) | 10 to 100 | 10 to 100 |
| O=C(O)COc1cc(Cl)c(Cc2ccc(O)c(C(c3ccc(F)cc3)C(F)(F)F)c2)c(Cl)c1 (stereo not drawn) [Compound 125] | ++ (3X < T3-SI ≤ 30X) | 10 to 100 | 100 to 1000 |
| CC(C)c1cccc(-c2cc(Cc3c(Cl)cc(OCC(=O)O)cc3Cl)ccc2O)c1 [Compound 13, 2-(3,5-dichloro-4-((6-hydroxy-3′-isopropyl-[1,1′-biphenyl]-3-yl)methyl)phenoxy)acetic Acid] | +++ (T3-SI > 30X) | 100 to 1000 | > 1000 |
| O=C(O)COc1cc(Cl)c(Cc2ccc(O)c(Cc3ccccc3F)c2)c(Cl)c1 [Compound 84, 2-(3,5-dichloro-4-(3-(2-fluorobenzyl)-4-hydroxybenzyl)phenoxy)acetic Acid] | ++ (3X < T3-SI ≤ 30X) | > 1000 | > 1000 |
| O=C(O)COc1cc(Cl)c(Cc2ccc(O)c(-c3cc(F)cc(OC(F)F)c3)c2)c(Cl)c1 [Compound 54, 2-(3,5-dichloro-4-((3′-(difluoromethoxy)-5′-fluoro-6-hydroxy-[1,1′-biphenyl]-3-yl)methyl)phenoxy)acetic Acid] | ++ (3X < T3-SI ≤ 30X) | 100 to 1000 | > 1000 |
| O=C(O)COc1cc(Cl)c(Cc2ccc(O)c(C(CC(F)(F)F)c3ccc(F)cc3)c2)c(Cl)c1 (stereo not drawn) [Compound 127, 2-(3,5-dichloro-4-(4-hydroxy-3-(3,3,3-trifluoro-1-(4-fluorophenyl)propyl)benzyl)phenoxy)acetic Acid] | ++ (3X < T3-SI ≤ 30X) | 10 to 100 | 100 to 1000 |
| O=C(O)COc1cc(Cl)c(Cc2ccc(O)c(-c3ccoc3)c2)c(Cl)c1 [Compound 40, 2-(3,5-dichloro-4-(3-(furan-3-yl)-4-hydroxybenzyl)phenoxy)acetic acid] | ++ (3X < T3-SI ≤ 30X) | > 1000 | > 1000 |
| CCCC(c1ccc(F)cc1)c1cc(Cc2c(Cl)cc(OCC(=O)O)cc2Cl)ccc1O (stereo not drawn) [Compound 102, 2-(3,5-dichloro-4-(3-(1-(4-fluorophenyl)butyl)-4-hydroxybenzyl)phenoxy) acetic Acid] | +++ (T3-SI > 30X) | 100 to 1000 | > 1000 |
| Cc1cc(OCC(=O)O)cc(C)c1Cc1ccc(O)c(Cc2ccc(F)cc2)c1 [Compound 133, 2-(4-(3-(4-fluorobenzyl)-4-hydroxybenzyl)-3,5-dimethylphenoxy)acetic Acid] | ++ (3X < T3-SI ≤ 30X) | 10 to 100 | 100 to 1000 |
| Cc1cc(OCC(=O)O)cc(Cl)c1Cc1ccc(O)c(-c2cccc(C(F)(F)F)c2)c1 [Compound 64, 2-(3-chloro-4-((6-hydroxy-3′-(trifluoromethyl)-[1,1′-biphenyl]-3-yl)methyl)-5-methylphenoxy)acetic Acid] | ++ (3X < T3-SI ≤ 30X) | 100 to 1000 | 100 to 1000 |
| O=C(O)COc1cc(Cl)c(Cc2ccc(O)c(Cc3ccncc3)c2)c(Cl)c1 [Compound 82, 2-(3,5-dichloro-4-(4-hydroxy-3-(pyridin-4-ylmethyl)benzyl)phenoxy) acetic Acid] | ++ (3X < T3-SI ≤ 30X) | > 1000 | > 1000 |
| O=C(O)COc1cc(Cl)c(Cc2ccc(O)c(-c3cccc(OC(F)F)c3F)c2)c(Cl)c1 [Compound 56, 2-(3,5-dichloro-4-((3′-(difluoromethoxy)-2′-fluoro-6-hydroxy-[1,1′-biphenyl]-3-yl)methyl)phenoxy)acetic Acid] | ++ (3X < T3-SI ≤ 30X) | 100 to 1000 | > 1000 |
| O=C(O)COc1cc(Cl)c(Cc2ccc(O)c(Cc3ccoc3)c2)c(Cl)c1 [Compound 119, 2-(3,5-dichloro-4-(3-(furan-3-ylmethyl)-4-hydroxybenzyl)phenoxy)acetic Acid] | ++ (3X < T3-SI ≤ 30X) | 100 to 1000 | > 1000 |
| O=C(O)COc1cc(Cl)c(Cc2ccc(O)c(C(c3ccc(F)cc3)C3CC3)c2)c(Cl)c1 (stereo not drawn) [Compound 107, 2-(3,5-dichloro-4-(3-(cyclopropyl(4-fluorophenyl)methyl)-4-hydroxybenzyl)phenoxy)acetic Acid] | ++ (3X < T3-SI ≤ 30X) | 10 to 100 | 100 to 1000 |
| O=C(O)COc1cc(Cl)c(Cc2ccc(O)c(-c3cc(C(F)(F)F)ccc3F)c2)c(Cl)c1 [Compound 45, 2-(3,5-dichloro-4-((2′-fluoro-6-hydroxy-5′-(trifluoromethyl)-[1,1′-biphenyl]-3-yl)methyl)phenoxy)acetic Acid] | ++ (3X < T3-SI ≤ 30X) | 10 to 100 | 100 to 1000 |
| O=C(O)COc1cc(Cl)c(Cc2ccc(O)c(-c3cc(Cl)cs3)c2)c(Cl)c1 [Compound 36, 2-(3,5-dichloro-4-(3-(4-chlorothiophen-2-yl)-4-hydroxybenzyl)phenoxy) acetic Acid] | ++ (3X < T3-SI ≤ 30X) | > 1000 | > 1000 |
| O=C(O)COc1cc(Cl)c(Cc2ccc(O)c(Cc3cccc(F)c3)c2)c(Cl)c1 [Compound 86, 2-(3,5-dichloro-4-(3-(3-fluorobenzyl)-4-hydroxybenzyl)phenoxy)acetic Acid] | ++ (3X < T3-SI ≤ 30X) | > 1000 | > 1000 |
